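These data come from cells grown in 96-well plates and exposed to compound for 48 hours at five concentrations. Here, GI50 denotes the concentration required for 50% inhibition of growth. TGI denotes the concentration required for complete inhibition of growth.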
Experiments:
Assay in all cases: growth of human tumour cells (NCI), 48 h
[1] = system: SR leukemia
[2] = system: ACHN renal
[3] = system: HCC-2998 colon
[4] = system: HOP-62 NSCLC
[5] = system: NCI/ADR-RES ovarian
[6] = system: NCI-H23 lung
[7] = system: OVCAR-8 ovarian
[8] = system: SNB-75 CNS
[9] = system: CAKI-1 renal
[10] = system: DU-145 prostate
[11] = system: NCI-H460 lung
[12] = system: MCF7 breast
[13] = system: U251 CNS
[14] = system: MOLT-4 leukemia
[15] = system: OVCAR-5 ovarian
[16] = system: HCT-15 colon
[17] = system: PC-3 prostate
[18] = system: HL-60(TB) leukemia
[19] = system: RPMI-8226 leukemia
[20] = system: SK-OV-3 ovarian
[21] = system: HCT-116 colon
[22] = system: SNB-19 CNS
[23] = system: OVCAR-3 ovarian
[24] = system: NCI-H522 lung
[25] = system: COLO 205 colon
[26] = system: SK-MEL-2 melanoma
[27] = system: NCI-H226 lung
[28] = system: RXF 393 renal
[29] = system: UO-31 renal
[30] = system: SF-539 CNS
[31] = system: SN12C renal
[32] = system: MDA-MB-435
[33] = system: MALME-3M melanoma
[34] = system: HOP-92 NSCLC
[35] = system: SK-MEL-28 melanoma
[36] = system: BT-549 breast
[37] = system: TK-10 renal
[38] = system: LOX IMVI melanoma
[39] = system: K-562 leukemia
[40] = system: KM12 colon
[41] = system: SW-620 colon
[42] = system: HS 578T breast
[43] = system: HT29 colon
[44] = system: MDA-MB-231 breast
[45] = system: IGROV1 ovarian
[46] = system: M14 melanoma
[47] = system: A498 renal
[48] = system: UACC-62 melanoma
[49] = system: SK-MEL-5 melanoma
[50] = system: SF-295 CNS
[51] = system: 786-0 renal
[52] = system: T-47D breast
[53] = system: SF-268 CNS
[54] = system: A549 NSCLC
[55] = system: OVCAR-4 ovarian
[56] = system: CCRF-CEM leukemia
[57] = system: UACC-257 melanoma

O=C(Nc1ccc2[nH]c3ccccc3c2c1)c1ccccc1Cl
GI50 [1]: 2.7 µM | TGI [1]: > 100 µM | GI50 [2]: 4.98 µM | TGI [2]: > 100 µM | GI50 [3]: 3.84 µM | TGI [3]: 18.5 µM | GI50 [4]: 59.4 µM | TGI [4]: > 100 µM | GI50 [5]: 3.64 µM | TGI [5]: > 100 µM | GI50 [6]: 12.2 µM | TGI [6]: > 100 µM | GI50 [7]: 6.33 µM | TGI [7]: > 100 µM | GI50 [8]: 2.8 µM | TGI [8]: 24.6 µM | GI50 [9]: 3.47 µM | TGI [9]: > 100 µM | GI50 [10]: 6.09 µM | TGI [10]: > 100 µM | GI50 [11]: 3.75 µM | TGI [11]: > 100 µM | GI50 [12]: 3.57 µM | TGI [12]: > 100 µM | GI50 [13]: 4.62 µM | TGI [13]: > 100 µM | GI50 [14]: 5.86 µM | TGI [14]: > 100 µM | GI50 [15]: 10.3 µM | TGI [15]: > 100 µM | GI50 [16]: 2.95 µM | TGI [16]: > 100 µM | GI50 [17]: 3.31 µM | TGI [17]: > 100 µM | GI50 [18]: 3.07 µM | TGI [18]: > 100 µM | GI50 [19]: 4.42 µM | TGI [19]: > 100 µM | GI50 [20]: 8.46 µM | TGI [20]: > 100 µM | GI50 [21]: 4.86 µM | TGI [21]: > 100 µM | GI50 [22]: 8.16 µM | TGI [22]: > 100 µM | GI50 [23]: 3.43 µM | TGI [23]: 12.8 µM | GI50 [24]: 2.92 µM | TGI [24]: 9.66 µM | GI50 [25]: 3.5 µM | TGI [25]: > 100 µM | GI50 [26]: 5.35 µM | TGI [26]: 74.8 µM | GI50 [27]: 5.53 µM | TGI [27]: > 100 µM | GI50 [28]: 2.49 µM | TGI [28]: 8.99 µM | GI50 [29]: 5.2 µM | TGI [29]: > 100 µM | GI50 [30]: 2.49 µM | TGI [30]: 7.22 µM | GI50 [31]: 5.16 µM | TGI [31]: > 100 µM | GI50 [32]: 0.969 µM | TGI [32]: > 100 µM | GI50 [33]: 4.64 µM | TGI [33]: > 100 µM | GI50 [34]: 2.84 µM | TGI [34]: > 100 µM | GI50 [35]: 5.95 µM | TGI [35]: > 100 µM | GI50 [36]: 5.63 µM | TGI [36]: > 100 µM | GI50 [37]: 7.25 µM | TGI [37]: > 100 µM | GI50 [38]: 3.41 µM | TGI [38]: 39 µM | GI50 [39]: 2.63 µM | TGI [39]: > 100 µM | GI50 [40]: 2.32 µM | TGI [40]: 11.6 µM | GI50 [41]: 3.91 µM | TGI [41]: > 100 µM | GI50 [42]: 3.84 µM | TGI [42]: 86.8 µM | GI50 [43]: 3.78 µM | TGI [43]: > 100 µM | GI50 [44]: 2.96 µM | TGI [44]: 20.4 µM | GI50 [45]: 8.85 µM | TGI [45]: > 100 µM | GI50 [46]: 3.81 µM | TGI [46]: > 100 µM | GI50 [47]: 2.32 µM | TGI [47]: 9.19 µM | GI50 [48]: 6.53 µM | TGI [48]: > 100 µM | GI50 [49]: 2.88 µM | TGI [49]: > 100 µM | GI50 [50]: 3.63 µM | TGI [50]: > 100 µM | GI50 [51]: 4.05 µM | TGI [51]: 51 µM | GI50 [52]: 8.21 µM | TGI [52]: > 100 µM | GI50 [53]: 6.77 µM | TGI [53]: > 100 µM | GI50 [54]: 4.32 µM | TGI [54]: > 100 µM | GI50 [55]: 6.83 µM | TGI [55]: > 100 µM | GI50 [56]: 3.7 µM | TGI [56]: > 100 µM

COc1cc(Nc2ccnc(NCCNc3ccnc4cc(Cl)ccc34)n2)cc(OC)c1
GI50 [1]: 1.65 µM | TGI [1]: 6.85 µM | GI50 [2]: 1.95 µM | TGI [2]: 5.16 µM | GI50 [3]: 1.75 µM | TGI [3]: 3.78 µM | GI50 [4]: 2.14 µM | TGI [4]: 8.36 µM | GI50 [5]: 3.79 µM | TGI [5]: 16.4 µM | GI50 [6]: 1.86 µM | TGI [6]: 14.1 µM | GI50 [7]: 2.52 µM | TGI [7]: 11.5 µM | GI50 [8]: 1.73 µM | TGI [8]: 3.52 µM | GI50 [9]: 2.17 µM | TGI [9]: 6.59 µM | GI50 [10]: 4.03 µM | TGI [10]: 15.6 µM | GI50 [11]: 1.45 µM | TGI [11]: 5.31 µM | GI50 [12]: 1.61 µM | TGI [12]: 3.97 µM | GI50 [13]: 1.61 µM | TGI [13]: 4.27 µM | GI50 [14]: 1.84 µM | TGI [14]: 8.9 µM | GI50 [15]: 1.66 µM | TGI [15]: 6.27 µM | GI50 [16]: 1.37 µM | TGI [16]: 3.42 µM | GI50 [17]: 2.51 µM | TGI [17]: 14.4 µM | GI50 [18]: 2.22 µM | TGI [18]: 5.28 µM | GI50 [19]: 1.41 µM | TGI [19]: 4.45 µM | GI50 [20]: 8.58 µM | TGI [20]: 21 µM | GI50 [21]: 0.83 µM | TGI [21]: 2.58 µM | GI50 [22]: 2.38 µM | TGI [22]: 8.9 µM | GI50 [23]: 1.89 µM | TGI [23]: 5.03 µM | GI50 [24]: 1.78 µM | TGI [24]: 5.19 µM | GI50 [25]: 1.61 µM | TGI [25]: 3.46 µM | GI50 [26]: 1.91 µM | TGI [26]: 4.18 µM | GI50 [27]: 2.95 µM | TGI [27]: 22.8 µM | GI50 [28]: 1.38 µM | TGI [28]: 2.94 µM | GI50 [29]: 1.19 µM | TGI [29]: 2.81 µM | GI50 [30]: 1.48 µM | TGI [30]: 2.86 µM | GI50 [31]: 2.19 µM | TGI [31]: 12.4 µM | GI50 [32]: 1.55 µM | TGI [32]: 2.95 µM | GI50 [33]: 1.86 µM | TGI [33]: 3.69 µM | GI50 [34]: 0.811 µM | TGI [34]: 4.45 µM | GI50 [35]: 1.76 µM | TGI [35]: 3.29 µM | GI50 [36]: 1.86 µM | TGI [36]: 4.24 µM | GI50 [37]: 3.72 µM | TGI [37]: 9.71 µM | GI50 [38]: 1.47 µM | TGI [38]: 2.97 µM | GI50 [39]: 0.843 µM | TGI [39]: 3.82 µM | GI50 [40]: 3.34 µM | TGI [40]: 14.2 µM | GI50 [41]: 1.66 µM | TGI [41]: 4.18 µM | GI50 [42]: 2.18 µM | TGI [42]: 5.93 µM | GI50 [43]: 0.588 µM | TGI [43]: 3.76 µM | GI50 [44]: 1.41 µM | TGI [44]: 3.74 µM | GI50 [45]: 1.89 µM | TGI [45]: 5.56 µM | GI50 [47]: 0.175 µM | TGI [47]: 2.2 µM | GI50 [57]: 1.82 µM | TGI [57]: 3.87 µM | GI50 [48]: 1.6 µM | TGI [48]: 3.08 µM | GI50 [49]: 1.69 µM | TGI [49]: 3.24 µM | GI50 [50]: 0.961 µM | TGI [50]: 2.43 µM | GI50 [51]: 1.56 µM | TGI [51]: 2.9 µM | GI50 [52]: 1.73 µM | TGI [52]: 4.45 µM | GI50 [53]: 3.1 µM | TGI [53]: 12.5 µM | GI50 [54]: 3.23 µM | TGI [54]: 14.8 µM | GI50 [55]: 1.33 µM | TGI [55]: 6.56 µM | GI50 [56]: 2.45 µM | TGI [56]: 9.69 µM

Reference: PubChem BioAssay (NCI)
